Experimental data as given in patent US6737383B1, “Herbicidal oxadiazolidines” (priority 1999, dated 2004).

Experiments:
[1] = tested on: giant foxtail; test: Test B pre/postemergence giant foxtail; type: in vivo, Setaria faberii
How it was run: (§1)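 Herbicidal effect was estimated by eye on a ten-point control scale after plants spent twelve to sixteen days in a greenhouse following soil or foliar treatment. Foliar sprays targeted plants at one to four leaves; all doses were formulated in a non-phytotoxic solvent with surfactant.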

[2] = tested on: corn; test: Test B pre/postemergence corn; type: in vivo, Zea mays
How it was run: as §1

[3] = tested on: sugar beet; test: Test B pre/postemergence sugar beet; type: in vivo, Beta vulgaris
How it was run: as §1

[4] = tested on: purple nutsedge; test: Test B pre/postemergence purple nutsedge; type: in vivo, Cyperus rotundus
How it was run: as §1

[5] = tested on: wheat; test: Test B pre/postemergence wheat; type: in vivo, Triticum aestivum
How it was run: as §1

[6] = tested on: smallflower flatsedge; test: Test B flood test smallflower flatsedge; type: in vivo, Cyperus difformis
How it was run: (§2)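 Each value is a visual injury score relative to controls, with 10 meaning complete control and 0 no effect. Evaluation took place twelve to sixteen days after the 2-leaf-stage plants were treated and kept in the greenhouse.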

[7] = tested on: cocklebur; test: Test B pre/postemergence cocklebur; type: in vivo, Xanthium strumarium
How it was run: as §1

[8] = tested on: crabgrass; test: Test B pre/postemergence crabgrass; type: in vivo, Digitaria sanguinalis
How it was run: as §1

[9] = tested on: morningglory; test: Test B pre/postemergence morningglory; type: in vivo, Ipomoea hederacea
How it was run: as §1

[10] = tested on: rape; test: Test B pre/postemergence rape; type: in vivo, Brassica napus
How it was run: as §1

[11] = tested on: duck salad; test: Test B flood test duck salad; type: in vivo, Heteranthera limosa
How it was run: as §2

[12] = tested on: blackgrass; test: Test B pre/postemergence blackgrass; type: in vivo, Alopecurus myosuroides
How it was run: as §1

[13] = tested on: velvetleaf; test: Test B pre/postemergence velvetleaf; type: in vivo, Abutilon theophrasti
How it was run: as §1

[14] = tested on: rice; test: Test B flood test rice; type: in vivo, Oryza sativa
How it was run: as §2

[15] = tested on: soybean; test: Test B pre/postemergence soybean; type: in vivo, Glycine max
How it was run: as §1

[16] = tested on: pigweed; test: Test B pre/postemergence pigweed; type: in vivo, Amaranthus retroflexus
How it was run: as §1

[17] = Preemergence, Rate 62 g/ha, scale of 0 to 10 where 0 is no effect and 10 is complete control
[18] = Preemergence, Rate 250 g/ha, scale of 0 to 10 where 0 is no effect and 10 is complete control
[19] = Preemergence, Rate 500 g/ha, scale of 0 to 10 where 0 is no effect and 10 is complete control
[20] = Rate 62 g/ha, Postemergence, scale 0 to 10 (0 no effect, 10 complete control)
[21] = Rate 125 g/ha, Postemergence, scale of 0 to 10 where 0 is no effect and 10 is complete control
[22] = Rate 250 g/ha, Postemergence, scale of 0 to 10 where 0 is no effect and 10 is complete control
[23] = Rate 500 g/ha, Postemergence, scale 0 to 10, 0 no effect, 10 complete control
[24] = Rate 62 g/ha, headed Pre-emergence (flood test species), scale 0 to 10 (0 no effect, 10 complete control)
[25] = Rate 125 g/ha, Pre-emergence, flood test species, scale 0 to 10 where 0 is no effect and 10 is complete control
[26] = Rate 250 g/ha, Pre-emergence, flood-test species, scale 0 to 10, 0 is no effect, 10 is complete control
[27] = Rate 500 g/ha, Pre-emergence, flood test species, scale 0 to 10 (0 no effect, 10 complete control)

CC(C)N(C(=O)n1oc(=O)n(Cc2nnsc2Cl)c1=O)c1ccccc1 [Compound 321]
Giant foxtail plant response rating [1, 17]: 4
Giant foxtail plant response rating (0 to 10 scale) ([1]; Preemergence, Rate 125 g/ha): 8
Giant foxtail plant response rating [1, 18]: 9
Giant foxtail plant response rating [1, 19]: 10
Giant foxtail plant response rating [1, 20]: 0
Giant foxtail plant response rating [1, 21]: 0
Plant response rating, Giant foxtail [1, 22]: 1
Corn plant response rating [2, 17]: 0
Corn plant response rating (0 to 10 scale) ([2]; Preemergence, Rate 125 g/ha): 0
Corn plant response rating [2, 18]: 0
Corn plant response rating [2, 19]: 0
Corn plant response rating [2, 20]: 0
Corn plant response rating [2, 21]: 0
Plant response rating, Corn [2, 22]: 0
Corn plant response rating [2, 23]: 0
Sugarbeets plant response rating [3, 17]: 0
Sugarbeets plant response rating (0 to 10 scale) ([3]; Preemergence, Rate 125 g/ha): 0
Sugarbeets plant response rating [3, 18]: 0
Sugarbeets plant response rating [3, 19]: 0
Sugarbeets plant response rating [3, 20]: 0
Sugarbeets plant response rating [3, 21]: 0
Plant response rating, Sugarbeets [3, 22]: 5
Nutsedge plant response rating [4, 17]: 0
Nutsedge plant response rating (0 to 10 scale) ([4]; Preemergence, Rate 125 g/ha): 0
Nutsedge plant response rating [4, 19]: 0
Nutsedge plant response rating [4, 20]: 0
Nutsedge plant response rating [4, 21]: 0
Plant response rating, Nutsedge [4, 22]: 0
Wheat plant response rating [5, 17]: 0
Wheat plant response rating (0 to 10 scale) ([5]; Preemergence, Rate 125 g/ha): 0
Wheat plant response rating [5, 18]: 0
Wheat plant response rating [5, 19]: 0
Wheat plant response rating [5, 20]: 0
Wheat plant response rating [5, 21]: 0
Plant response rating, Wheat [5, 22]: 0
S. Flatsedge plant response rating [6, 24]: 0
S. Flatsedge plant response rating [6, 25]: 0
S. Flatsedge plant response rating [6, 26]: 0
S. Flatsedge plant response rating [6, 27]: 0
Cocklebur plant response rating [7, 17]: 0
Cocklebur plant response rating (0 to 10 scale) ([7]; Preemergence, Rate 125 g/ha): 0
Cocklebur plant response rating [7, 18]: 0
Cocklebur plant response rating [7, 19]: 0
Cocklebur plant response rating [7, 20]: 0
Cocklebur plant response rating [7, 21]: 0
Plant response rating, Cocklebur [7, 22]: 0
Cocklebur plant response rating [7, 23]: 0
Crabgrass plant response rating [8, 17]: 0
Crabgrass plant response rating (0 to 10 scale) ([8]; Preemergence, Rate 125 g/ha): 2
Crabgrass plant response rating [8, 18]: 3
Crabgrass plant response rating [8, 19]: 4
Crabgrass plant response rating [8, 20]: 0
Crabgrass plant response rating [8, 21]: 0
Plant response rating, Crabgrass [8, 22]: 2
Morningglory plant response rating [9, 17]: 0
Morningglory plant response rating (0 to 10 scale) ([9]; Preemergence, Rate 125 g/ha): 0
Morningglory plant response rating [9, 18]: 0
Morningglory plant response rating [9, 19]: 0
Morningglory plant response rating [9, 20]: 2
Morningglory plant response rating [9, 21]: 7
Plant response rating, Morningglory [9, 22]: 8
Rape plant response rating [10, 17]: 0
Rape plant response rating (0 to 10 scale) ([10]; Preemergence, Rate 125 g/ha): 0
Rape plant response rating [10, 18]: 0
Rape plant response rating [10, 19]: 0
Rape plant response rating [10, 20]: 0
Rape plant response rating [10, 21]: 0
Plant response rating, Rape [10, 22]: 0
Ducksalad plant response rating [11, 24]: 0
Ducksalad plant response rating [11, 25]: 0
Ducksalad plant response rating [11, 26]: 0
Ducksalad plant response rating [11, 27]: 0
Blackgrass plant response rating [12, 17]: 3
Blackgrass plant response rating (0 to 10 scale) ([12]; Preemergence, Rate 125 g/ha): 6
Blackgrass plant response rating [12, 18]: 6
Blackgrass plant response rating [12, 19]: 7
Blackgrass plant response rating [12, 20]: 0
Blackgrass plant response rating [12, 21]: 0
Plant response rating, Blackgrass [12, 22]: 0
Blackgrass plant response rating [12, 23]: 4
Velvetleaf plant response rating [13, 17]: 0
Velvetleaf plant response rating (0 to 10 scale) ([13]; Preemergence, Rate 125 g/ha): 0
Velvetleaf plant response rating [13, 18]: 0
Velvetleaf plant response rating [13, 19]: 0
Velvetleaf plant response rating [13, 20]: 0
Velvetleaf plant response rating [13, 21]: 0
Plant response rating, Velvetleaf [13, 22]: 0
Rice plant response rating [14, 24]: 0
Rice plant response rating [14, 25]: 0
Rice plant response rating [14, 26]: 0
Rice plant response rating [14, 27]: 0
Soybean plant response rating [15, 17]: 0
Soybean plant response rating (0 to 10 scale) ([15]; Preemergence, Rate 125 g/ha): 0
Soybean plant response rating [15, 18]: 0
Soybean plant response rating [15, 19]: 0
Soybean plant response rating [15, 20]: 2
Plant response rating, Soybean [15, 22]: 3
Redroot pigweed plant response rating [16, 17]: 0
Redroot pigweed plant response rating (0 to 10 scale) ([16]; Preemergence, Rate 125 g/ha): 0
Redroot pigweed plant response rating [16, 18]: 0
Redroot pigweed plant response rating [16, 19]: 0
Redroot pigweed plant response rating [16, 20]: 2
Redroot pigweed plant response rating [16, 21]: 3
Plant response rating, Redroot pigweed [16, 22]: 4
